15 molecules from ChEMBL document CHEMBL3808316, “Design, synthesis and biological evaluation of novel tetrahydroisoquinoline quaternary derivatives as peripheral κ-opioid receptor agonists” (Bioorg Med Chem, 2016) can be followed below.

The target in series [1] is Mu-type opioid receptor (Rattus norvegicus) (UniProt P33535). The series can be described thus: Displacement of [3H]diprenorphine from rat mu opioid receptor expressed in CHO cell membranes at 10^-6 M after 30 mins by liquid scintillation counting analysis. (Displacement assays read how much labelled ligand stays bound in the presence of the test substance.)
Mu-type opioid receptor (Rattus norvegicus), sequence (P33535 whole entry): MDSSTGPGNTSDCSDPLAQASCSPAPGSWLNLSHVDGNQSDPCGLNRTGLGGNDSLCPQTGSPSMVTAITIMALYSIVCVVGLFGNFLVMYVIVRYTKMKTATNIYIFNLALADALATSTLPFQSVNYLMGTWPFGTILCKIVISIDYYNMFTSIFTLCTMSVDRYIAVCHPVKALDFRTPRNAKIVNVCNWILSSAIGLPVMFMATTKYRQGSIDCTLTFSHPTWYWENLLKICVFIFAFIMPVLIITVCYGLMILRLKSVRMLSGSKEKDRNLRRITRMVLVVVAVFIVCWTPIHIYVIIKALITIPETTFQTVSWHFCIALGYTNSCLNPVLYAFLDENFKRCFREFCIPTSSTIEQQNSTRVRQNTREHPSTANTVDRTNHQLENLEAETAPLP
In series [2] the target is T1, Kappa-type opioid receptor (Homo sapiens, UniProt P41145). In words: Displacement of [3H]diprenorphine from human kappa opioid receptor expressed in CHO cell membranes after 30 mins by liquid scintillation counting analysis.
T1 sequence (P41145 whole entry): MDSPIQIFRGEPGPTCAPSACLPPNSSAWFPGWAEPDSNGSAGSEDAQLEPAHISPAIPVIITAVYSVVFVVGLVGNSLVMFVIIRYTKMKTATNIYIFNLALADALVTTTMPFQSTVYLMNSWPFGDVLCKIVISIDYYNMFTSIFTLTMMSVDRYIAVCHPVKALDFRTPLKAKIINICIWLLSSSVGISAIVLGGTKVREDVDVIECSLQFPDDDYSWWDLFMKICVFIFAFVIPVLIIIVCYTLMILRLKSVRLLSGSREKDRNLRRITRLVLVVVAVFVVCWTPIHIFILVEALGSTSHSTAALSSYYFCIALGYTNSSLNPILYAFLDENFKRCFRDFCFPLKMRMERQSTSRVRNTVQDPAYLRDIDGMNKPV
Series [3] has as its target T1, Kappa-type opioid receptor. In words: Displacement of [3H]diprenorphine from human kappa opioid receptor expressed in CHO cell membranes at 10^-5 M after 30 mins by liquid scintillation counting analysis.
For series [4], the target named is Mu-type opioid receptor (Rattus norvegicus) (UniProt P33535). The series can be described thus: Displacement of [3H]diprenorphine from rat mu opioid receptor expressed in CHO cell membranes at 10^-5 M after 30 mins by liquid scintillation counting analysis.
Series [5] has as its target T1, Kappa-type opioid receptor. The series can be described thus: Displacement of [3H]diprenorphine from human kappa opioid receptor expressed in CHO cell membranes at 10^-6 M after 30 mins by liquid scintillation counting analysis.
Series [6] has as its system Mus musculus. The series can be described thus: Sedative activity in sc dosed Kunming mouse assessed as […] after 20 mins by rotation test. The note with it: in vivo. It counts as ADME, organism-based.
The nature of series [7]: Selectivity ratio of Ki for rat mu opioid receptor to Ki for human kappa opioid receptor.
Series [8] has as its system Mus musculus. The series can be described thus: Antinociceptive activity in ip dosed mouse assessed as acetic acid induced writhing administered 30 mins prior to acetic acid challenge measured for 20 mins. It counts as functional. A general note: An intraperitoneal irritant provokes the stretching counted in writhing tests.
The test system of series [9] is Mus musculus. In words: Sedative activity in sc dosed Kunming mouse assessed as center square duration distance at 25 ug/kg after 45 mins by open field test (reference value: 1.77 +/- 0.81 m). Format: ADME, organism-based. The note with it: in vivo, 0.025 mg/kg, 0.75 h.
Series [10] has as its system Mus musculus. In words: Peripheral restriction index, ratio of sedative ED50 in sc dosed Kunming mouse to antinociceptive ED50 in ip dosed mouse.
Series [11] has as its system Mus musculus. In words: Sedative activity in sc dosed Kunming mouse assessed as crossing number at 25 ug/kg after 45 mins by open field test (reference value: 155 +/- 34). Format: ADME, organism-based. The note with it: in vivo, 0.025 mg/kg, 0.75 h.
Series [12] relates to Mus musculus. In words: Sedative activity in sc dosed Kunming mouse assessed as center square duration time at 25 ug/kg after 45 mins by open field test (reference value: 13.2 +/- 3.1 secs). Format: ADME, organism-based. The note with it: in vivo, 0.025 mg/kg, 0.75 h.
Series [13] has as its system Mus musculus. The series can be described thus: Sedative activity in sc dosed Kunming mouse assessed as center square duration distance at 50 ug/kg after 45 mins by open field test (reference value: 1.77 +/- 0.81 m). It counts as ADME, organism-based. The note with it: in vivo, 0.05 mg/kg, 0.75 h.
For series [14], the system named is Mus musculus. In words: Sedative activity in sc dosed Kunming mouse assessed as center square duration distance at 100 ug/kg after 45 mins by open field test (reference value: 1.77 +/- 0.81 m). It counts as ADME, organism-based. The note with it: in vivo, 0.1 mg/kg, 0.75 h.
Series [15] deals with Mus musculus. In words: Sedative activity in sc dosed Kunming mouse assessed as center square duration time at 50 ug/kg after 45 mins by open field test (reference value: 13.2 +/- 3.1 secs). Format: ADME, organism-based. The note with it: in vivo, 0.05 mg/kg, 0.75 h.
The subject of series [16] is Mus musculus. In words: Sedative activity in sc dosed Kunming mouse assessed as center square duration distance at 200 ug/kg after 45 mins by open field test (reference value: 1.77 +/- 0.81 m). It counts as ADME, organism-based. The note with it: in vivo, 0.2 mg/kg, 0.75 h.
Series [17] relates to Mus musculus. In words: Sedative activity in sc dosed Kunming mouse assessed as center square duration time at 200 ug/kg after 45 mins by open field test (reference value: 13.2 +/- 3.1 secs). The note with it: in vivo, 0.2 mg/kg, 0.75 h. Format: ADME, organism-based.
Series [18] relates to Mus musculus. The series can be described thus: Potency index, ratio of antinociceptive ED50 for U50488H to antinociceptive ED50 for test compound in ip dosed mouse after 20 mins. Format: functional.
Series [19] has as its system Mus musculus. The series can be described thus: Sedative activity in sc dosed Kunming mouse assessed as crossing number at 50 ug/kg after 45 mins by open field test (reference value: 155 +/- 34). Format: ADME, organism-based. The note with it: in vivo, 0.05 mg/kg, 0.75 h.
Series [20] deals with Mus musculus. In words: Sedative activity in sc dosed Kunming mouse assessed as center square duration time at 100 ug/kg after 45 mins by open field test (reference value: 13.2 +/- 3.1 secs). It counts as ADME, organism-based. The note with it: in vivo, 0.1 mg/kg, 0.75 h.
Series [21] concerns Mus musculus. In words: Sedative activity in sc dosed Kunming mouse assessed as crossing number at 200 ug/kg after 45 mins by open field test (reference value: 155 +/- 34). Format: ADME, organism-based. The note with it: in vivo, 0.2 mg/kg, 0.75 h.
In series [22] the test system is Mus musculus. In words: Sedative activity in sc dosed Kunming mouse assessed as crossing number at 100 ug/kg after 45 mins by open field test (reference value: 155 +/- 34). It counts as ADME, organism-based. The note with it: in vivo, 0.1 mg/kg, 0.75 h.

Usually inhibition stands for the share of the control response that was lost under treatment. High values mean a response far below the control, low ones a response near the control. Usually Ki stands for a measure of affinity in units of concentration, obtained from inhibition or displacement. For the molecule `C[N+]1(CC2c3ccc(O)cc3CCN2C(=O)C2CC(=O)c3ccc(Cl)cc32)CCCC1` (stereo not drawn), the inhibition in series [1] amounted to 8.2%; in series [3], 87.7%; in [4], 34.5%; in series [5], 67.3%. Further, in series [2], affinity was put at a Ki of 231 nM.

As to `COc1ccc2c(c1)CCN(C(=O)C1CC(=O)c3ccc(Cl)cc31)C2C[N+]1(C)CCCC1` (stereo not drawn), the inhibition is 4% in [1], 85.5% in series [3], 9.8% in [4] and 50% in series [5].

The term ED50 denotes the dose that gives a 50% effect, or the effect in half of the subjects. Regarding `O=C1CC(C(=O)N2CCc3ccccc3C2CN2CCCC2)c2cc(Cl)ccc21` (stereo not drawn), the values for the ED50 in series [6] and in series [8] were 0.000568 mg/kg and 0.000406 mg/kg, respectively. For the same molecule, the Ratio Ki in series [7] is 21.1. For the same molecule, the Activity worked out at 1.21 m in [9] and 71 in series [11]. Besides, the “Ratio ED50” value in series [10] amounted to 1.4. In [12], the Time was 27.1 s. This molecule showed a Ki in series [2] of 0.033 nM.

On to `C[N+]1(CC2c3ccccc3CCN2C(=O)C2CC(=O)c3ccc(Cl)cc32)CCCC1` (stereo not drawn), for which the inhibition in [1] turned out to be 0%; in series [3] it was 83.7%; in series [4], 0%; in series [5], 10.8%. The molecule further came in with a Ki in series [2] greater than 10000 nM.

For the molecule `CC[N+]1(CC2c3ccccc3CCN2C(=O)C2CC(=O)c3ccc(Cl)cc32)CCCC1` (stereo not drawn), the inhibition worked out at 0% in series [1], 89.1% in series [3], 0% in series [4] and 31.9% in series [5].

Consider `O=C1CC(C(=O)N2CCc3ccccc3C2C[N+]2(Cc3ccc(Cl)cc3)CCCC2)c2cc(Cl)ccc21` (stereo not drawn), for which the inhibition in series [1] worked out at 0%; in series [3] it was 89.3%; in series [4] it was 10%; in series [5] it was 31.3%.

`COc1ccc2c(c1)C(C[N+]1(C)CCCC1)N(C(=O)C1CC(=O)c3ccc(Cl)cc31)CC2` (stereo not drawn): the inhibition in series [1] was found to be 0%; in series [3], 8.6%; in series [4], 0%; in [5], 0%.

Regarding `CCCC[N+]1(CC2c3ccccc3CCN2C(=O)C2CC(=O)c3ccc(Cl)cc32)CCCC1.[I-]` (stereo not drawn), the ED50 in [6] worked out at 0.24 mg/kg; in series [8], 0.022 mg/kg. In addition, the Activity in series [13] is given as 1.02 m; in series [14] it was 1.92 m; in [16], 1.93 m; in series [19], 153; in [21], 91; in [22] it was 138. In addition, the “Ratio ED50” value in [10] is 10.2; in series [18], 40. Moreover, the Time in series [15] came to 17.4 s; in [17] it was 27.4 s; in series [20], 19.1 s. Moreover, the inhibition is 28.8% in [1], 100% in [3], 62.4% in series [4] and 100% in series [5]. In addition, the affinity in series [2] corresponds to a Ki of 0.94 nM.

Regarding `O=C1CC(C(=O)N2CCc3ccccc3C2C[N+]2(Cc3ccc(F)cc3)CCCC2)c2cc(Cl)ccc21` (stereo not drawn), the inhibition in series [1] was 0%; in series [3], 13.1%; in series [4] it was 0%; in series [5], 0%.

As to `O=C1CC(C(=O)N2CCc3ccccc3C2C[N+]2(Cc3ccccc3)CCCC2)c2cc(Cl)ccc21` (stereo not drawn), the inhibition in series [1] stood at 0%; in series [3], 86%; in series [4] it was 0%; in series [5], 43.1%.

As for `O=C1CC(C(=O)N2CCc3ccccc3C2C[N+]2(Cc3ccc(Cl)cc3Cl)CCCC2)c2cc(Cl)ccc21` (stereo not drawn), the inhibition in [1] came to 0%; in series [3], 31.9%; in series [4] it was 10.4%; in series [5], 12.1%.

For the molecule `C[N+]1(CC2c3cc(F)ccc3CCN2C(=O)C2CC(=O)c3ccc(Cl)cc32)CCCC1` (stereo not drawn), the inhibition came out at 8.9% in series [1], 97.4% in [3], 26.5% in series [4] and 86% in series [5]. For the same molecule, the Ki in series [2] was found to be 138 nM.

For `O=C1CC(C(=O)N2CCc3ccccc3C2C[N+]2(CC3CC3)CCCC2)c2cc(Cl)ccc21` (stereo not drawn), the inhibition stood at 29.2% in [1], 100% in series [3], 48% in series [4] and 98.8% in series [5]. The molecule further had a Ki in series [2] of 3.56 nM.

Regarding `C=CC[N+]1(CC2c3ccccc3CCN2C(=O)C2CC(=O)c3ccc(Cl)cc32)CCCC1` (stereo not drawn), the inhibition was determined as 37.4% in series [1], 100% in series [3], 56.5% in series [4] and 100% in series [5]. Further, the inhibitory constant (Ki) in series [2] was 1.86 nM.

Consider `COc1ccc(C[N+]2(CC3c4ccccc4CCN3C(=O)C3CC(=O)c4ccc(Cl)cc43)CCCC2)cc1` (stereo not drawn), for which the inhibition in series [1] amounted to 0%; in series [3], 83%; in [4] it was 9.8%; in series [5], 3.9%.
